Laboratory results as given in patent US20210317140A1, “Heterocyclic Compounds and Methods of Use” (MEDIVATION TECHNOLOGIES, INC, priority 2013, published 2021).

Tests used:
BTK = biological target: T1, BTK (Homo sapiens, UniProt Q06187); experiment: BTK kinase assay (HotSpot, 33P ATP); format: biochemical; conditions: for BTK @ 0.01 μM (% Inh): 0.01 μM compound; for BTK @ 0.01 μM (% Inh) / BTK @ 0.1 μM (% Inh) / BTK @ 1 μM (% Inh): 10 μM ATP; for BTK @ 0.1 μM (% Inh): 0.1 μM compound; for BTK @ 1 μM (% Inh): 1 μM compound; for IC50: 10 dose IC50, 10 μM ATP
T1 construct: purchased Reaction Biology Corporation
Outline: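 In 20 mM Hepes (pH 7.5) with 10 mM MgCl2, 1 mM EGTA, 0.1 mM Na3VO4, 2 mM DTT, 0.02% Brij35, 0.02 mg/mL BSA and 1% DMSO, kinase and substrate were exposed to ten compound doses for 15–20 min.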

PI3Kδ = biological target: T2, PI3Kδ (Homo sapiens, UniProt O00329); experiment: PI3Kδ kinase assay (HTRF, PIP3 detection); format: biochemical; conditions: for PI3Kδ @ 0.01 μM (% Inh): 0.01 μM compound; for PI3Kδ @ 0.01 μM (% Inh) / PI3Kδ @ 0.1 μM (% Inh) / PI3Kδ @ 1 μM (% Inh): 10 μM ATP; for PI3Kδ @ 0.1 μM (% Inh): 0.1 μM compound; for PI3Kδ @ 1 μM (% Inh): 1 μM compound; for IC50: 10 dose IC50, 10 μM ATP
T2 construct: purchased Reaction Biology Corporation
Outline: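 PIP3 formation read by loss of energy transfer as it displaces biotin-PIP3 from a Eu anti-GST/GST-PH/streptavidin-APC complex, calibrated against PIP3 standards.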

CD69+B220+ cells = experiment: B cell activation assay (IgD-stimulated splenocytes, CD69+B220+ cells by FACS); format: cell-based; conditions: mouse splenocytes, IgD 3 μg/mL, 4 h; for CD69 @ 100 nM (% Inh): 100 nM compound
Experimental: 1 Female mouse approximately 2 months old was euthanized with CO2 and the spleen removed. The tissue was homogenized with a polished glass microscope slide. The cells were collected in 5 mL complete medium (RPMI+10% FBS+pen/strep), placed in a 15 mL falcon tube and centrifuged at 500×g for 5 min. The supernatant was discarded and the pellet was resuspended in 3 mL of ACK lysis buffer (NH4Cl 0.17M, KHCO3 10 mM, EDTA-Na2 0.1 mM, pH 7.2), incubated at 37° C. for 5 min. 2 mL complete medium was added and the mixture centrifuged at 500×g for 5 min. The supernatant was discarded and the pellet resuspended in 1 mL complete medium. The mixture was passed through a […] cell strainer and collect in 50 mL falcon tube. Enough medium was added to have a total of 10 mL. The cells were counted and seeded in 24 or 48-well plate in 1 mL complete medium at 10^6 cells/mL. The plate was placed in a 37° C. incubator for 15 min. The cells were treated for 30 min at 37° C. with 100 nM test compound dissolved in 100% DMSO. 3 μL IgD (Accurate chemical and scientific corp.) was added at a final concentration of 3 μg/mL and the mixture incubated at 37° C. for 4 h. The cells were collected in 1.5 mL eppendorf tubes, centrifuged at 500×g for 5 min and then resuspended in 100 μL of PBS+2% FBS. The following antibodies were added: α-B220 PE (pharmingen #553090), α-CD69 APC (pharmingen #60689), live/dead fixable aqua dead cell stain kit (life technologies #L34957) all at 1:300, and the mixture incubated for 15 min at 4° C. in the dark. To this was added 900 μL of PBS+2% FBS and the mixture centrifuged at 500×g for 5 min. The supernatant was removed and the pellet resuspended in 300 μL of PBS+2% FBS and mixed well. The mixture was transferred to a cytometer tube. The samples were run in the FACS Canto II cytometer and quantified by the number of CD69+B220+ cells as a percentage of the total number of B220+ alive cells.

T2 sequence (O00329 whole entry): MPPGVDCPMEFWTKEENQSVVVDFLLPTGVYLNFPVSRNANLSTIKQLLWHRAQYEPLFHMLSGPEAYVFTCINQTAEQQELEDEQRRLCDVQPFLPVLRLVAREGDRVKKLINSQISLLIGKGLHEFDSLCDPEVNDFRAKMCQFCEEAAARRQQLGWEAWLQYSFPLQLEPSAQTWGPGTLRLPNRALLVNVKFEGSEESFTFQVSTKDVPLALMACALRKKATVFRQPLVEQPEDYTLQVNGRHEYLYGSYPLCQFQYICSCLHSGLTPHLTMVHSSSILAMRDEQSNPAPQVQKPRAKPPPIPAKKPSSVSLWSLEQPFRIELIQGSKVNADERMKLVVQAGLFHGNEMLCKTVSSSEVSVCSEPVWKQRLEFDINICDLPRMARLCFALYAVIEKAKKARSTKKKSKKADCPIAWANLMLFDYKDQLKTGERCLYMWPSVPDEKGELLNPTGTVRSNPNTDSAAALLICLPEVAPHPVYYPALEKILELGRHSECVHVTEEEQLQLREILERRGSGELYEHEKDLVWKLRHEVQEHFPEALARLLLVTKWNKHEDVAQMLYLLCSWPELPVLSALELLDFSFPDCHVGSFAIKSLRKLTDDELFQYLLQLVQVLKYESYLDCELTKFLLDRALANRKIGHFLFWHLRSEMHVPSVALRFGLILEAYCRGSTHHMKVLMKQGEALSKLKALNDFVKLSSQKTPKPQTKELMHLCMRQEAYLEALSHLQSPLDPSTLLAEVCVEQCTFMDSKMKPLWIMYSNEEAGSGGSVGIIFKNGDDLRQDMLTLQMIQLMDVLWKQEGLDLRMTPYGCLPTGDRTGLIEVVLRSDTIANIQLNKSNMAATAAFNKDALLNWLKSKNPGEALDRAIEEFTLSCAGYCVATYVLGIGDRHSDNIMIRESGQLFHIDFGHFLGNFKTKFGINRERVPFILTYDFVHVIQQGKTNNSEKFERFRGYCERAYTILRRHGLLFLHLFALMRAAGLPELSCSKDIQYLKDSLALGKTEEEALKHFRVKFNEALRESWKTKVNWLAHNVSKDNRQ
T2 sequence (P27986 whole entry partner): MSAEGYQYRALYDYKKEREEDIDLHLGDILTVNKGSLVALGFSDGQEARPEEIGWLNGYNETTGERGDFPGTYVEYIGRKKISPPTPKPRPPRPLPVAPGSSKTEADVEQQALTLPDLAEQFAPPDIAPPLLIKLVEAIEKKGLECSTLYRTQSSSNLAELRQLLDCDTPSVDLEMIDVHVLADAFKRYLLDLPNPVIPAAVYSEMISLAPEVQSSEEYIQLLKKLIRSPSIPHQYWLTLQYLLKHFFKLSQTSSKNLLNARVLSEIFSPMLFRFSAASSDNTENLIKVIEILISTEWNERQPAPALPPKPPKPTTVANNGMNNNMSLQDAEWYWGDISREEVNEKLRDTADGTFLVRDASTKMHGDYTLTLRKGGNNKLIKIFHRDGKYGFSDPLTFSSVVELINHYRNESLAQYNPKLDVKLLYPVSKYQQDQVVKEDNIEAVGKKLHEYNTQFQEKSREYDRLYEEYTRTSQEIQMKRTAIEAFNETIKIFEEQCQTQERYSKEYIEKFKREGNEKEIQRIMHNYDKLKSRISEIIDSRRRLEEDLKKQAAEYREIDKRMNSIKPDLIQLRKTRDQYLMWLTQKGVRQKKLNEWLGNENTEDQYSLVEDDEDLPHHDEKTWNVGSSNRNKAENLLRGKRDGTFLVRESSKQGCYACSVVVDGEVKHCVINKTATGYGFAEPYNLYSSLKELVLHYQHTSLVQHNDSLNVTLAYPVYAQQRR
T1 sequence (Q06187 whole entry): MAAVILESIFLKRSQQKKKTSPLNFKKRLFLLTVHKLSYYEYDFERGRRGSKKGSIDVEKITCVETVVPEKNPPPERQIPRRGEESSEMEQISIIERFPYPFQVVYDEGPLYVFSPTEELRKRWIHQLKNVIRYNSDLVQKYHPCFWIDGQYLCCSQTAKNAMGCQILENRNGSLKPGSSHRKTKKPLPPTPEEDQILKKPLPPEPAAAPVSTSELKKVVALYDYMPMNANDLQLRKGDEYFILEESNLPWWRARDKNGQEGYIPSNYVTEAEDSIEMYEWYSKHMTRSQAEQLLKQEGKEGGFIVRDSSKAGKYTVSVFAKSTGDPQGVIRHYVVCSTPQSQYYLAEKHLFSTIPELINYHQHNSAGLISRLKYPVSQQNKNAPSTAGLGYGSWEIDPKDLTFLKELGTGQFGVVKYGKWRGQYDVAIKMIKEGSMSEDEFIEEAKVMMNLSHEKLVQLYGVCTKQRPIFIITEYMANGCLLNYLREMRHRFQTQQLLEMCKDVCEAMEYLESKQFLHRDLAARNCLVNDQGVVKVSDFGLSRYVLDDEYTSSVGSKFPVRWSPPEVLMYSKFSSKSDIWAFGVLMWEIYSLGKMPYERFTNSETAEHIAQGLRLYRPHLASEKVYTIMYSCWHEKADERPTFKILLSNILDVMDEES

BTK @ 0.01 μM (% Inh) (BTK) | BTK @ 0.1 μM (% Inh) (BTK) | PI3Kδ @ 0.01 μM (% Inh) (PI3Kδ) | PI3Kδ @ 0.1 μM (% Inh) (PI3Kδ) | IC50 (CD69+B220+ cells; Splenocyte) [nM] | BTK @ 1 μM (% Inh) (BTK) | IC50 (BTK) [nM] | PI3Kδ @ 1 μM (% Inh) (PI3Kδ) | IC50 (PI3Kδ) [nM] | SMILES | CD69 @ 100 nM (% Inh) (CD69+B220+ cells) | CD69 @ 100 nM (% Inh) (CD69+B220+ cells; 0.1 µM)
19.01 | 65.15 | 79.16 | 95.72 | – | – | – | – | – | Nc1ncnc2c1c(-c1cc(O)c(Cl)c(Cl)c1)nn2C1Cc2ccccc2C1 [compound 118, 5-[4-amino-1-(2,3-dihydro-1H-inden-2-yl)-1H-pyrazolo[3,4-d]pyrimidin-3-yl]-2,3-dichlorophenol] | 44.32 ± 10.35 (n = 3) % Inh | –
1.76 | 6.6 | 9.28 | 21.98 | – | – | – | – | – | Nc1ncnc2c1c(-c1ccc3[nH]c(O)nc3c1)nn2C1Cc2ccccc2C1 [compound 108, 5-[4-amino-1-(2,3-dihydro-1H-inden-2-yl)-1H-pyrazolo[3,4-d]pyrimidin-3-yl]-1H-1,3-benzodiazol-2-ol] | 11.99 ± 7.58 (n = 3) % Inh | –
1.82 | −0.78 | 59.11 | 88.87 | – | – | – | – | – | Nc1ncnc2c1c(-c1cc(O)c(F)c(C(F)(F)F)c1)nn2C1CCc2ccccc2C1 (centres unmarked) [compound 123, 5-[4-amino-1-(1,2,3,4-tetrahydronaphthalen-2-yl)-1H-pyrazolo[3,4-d]pyrimidin-3-yl]-2-fluoro-3-(trifluoromethyl)phenol] | 29.22 ± 4.64 (n = 3) % Inh | –
6.49 | 17.47 | 64.38 | 91.28 | 118 ± 11.1 | – | – | – | – | NC(=O)c1ccc(-c2nn(C3Cc4ccccc4C3)c3ncnc(N)c23)cc1O [compound 111, 4-[4-amino-1-(2,3-dihydro-1H-inden-2-yl)-1H-pyrazolo[3,4-d]pyrimidin-3-yl]-2-hydroxybenzamide] | 57.39 ± 5.05 (n = 3) % Inh | –
90.34 | 6.55 | 1.09 | 25.95 | – | – | – | – | – | Nc1ncnc2c1c(-c1cc(F)c3c(c1)NCCO3)nn2C1Cc2ccc(F)cc2C1 (centres unmarked) [compound 121, 1-(5-fluoro-2,3-dihydro-1H-inden-2-yl)-3-(8-fluoro-3,4-dihydro-2H-1,4-benzoxazin-6-yl)-1H-pyrazolo[3,4-d]pyrimidin-4-amine] | −82.03 ± 14.71 (n = 3) % Inh | –
21.31 | 67.32 | 75.86 | 91.69 | – | – | – | – | – | Nc1ncnc2c1c(-c1cc(O)c(F)c(Cl)c1)nn2C1Cc2ccccc2C1 [compound 117, 5-[4-amino-1-(2,3-dihydro-1H-inden-2-yl)-1H-pyrazolo[3,4-d]pyrimidin-3-yl]-3-chloro-2-fluorophenol] | 46.59 ± 11.89 (n = 3) % Inh | –
8.16 | 8.18 | 4.71 | 2.3 | – | – | – | – | – | Nc1ncnc2c1c(-c1cc(O)c(F)c(F)c1)nn2C1CCc2ncccc21 (centres unmarked) [compound 126, 5-(4-amino-1-{5H,6H,7H-cyclopenta[b]pyridin-5-yl}-1H-pyrazolo[3,4-d]pyrimidin-3-yl)-2,3-difluorophenol] | 12.35 ± 7.52 (n = 3) % Inh | –
– | 72.07 | – | 38.16 | – | 94.25 | 54.9 | 82.84 | 282 | Nc1cc(-c2nn(C3Cc4ccccc4C3)c3ncnc(N)c23)cnc1Cl [Compound No. 104, 5-[4-amino-1-(2,3-dihydro-1H-inden-2-yl)-1H-pyrazolo[3,4-d]pyrimidin-3-yl]-2-chloropyridin-3-amine] | 28.78 ± 19.62 (n = 5) % Inh | –
– | – | – | – | – | – | 1270 | – | 6.4 | Nc1ncnc2c1c(-c1ccc3[nH]cnc3c1)nn2C1CCc2ccccc2C1 (single isomer, unassigned) [Compound No. 19b, 3-(1H-benzo[d]imidazol-5-yl)-1-(1,2,3,4-tetrahydronaphthalen-2-yl)-1H-pyrazolo[3,4-d]pyrimidin-4-amine] | – | 36.67 ± 6.35 (n = 6) % Inh
14.85 | 63.35 | 2.46 | 26.17 | – | – | – | – | – | Nc1cc(-c2nn(C3Cc4ccccc4C3)c3ncnc(N)c23)cc(F)c1F [compound 109, 3-(3-amino-4,5-difluorophenyl)-1-(2,3-dihydro-1H-inden-2-yl)-1H-pyrazolo[3,4-d]pyrimidin-4-amine] | 10.19 ± 14.12 (n = 3) % Inh | –
−0.81 | −0.94 | −1.05 | 1.17 | – | – | – | – | – | NCc1cccc(-c2nn(C3Cc4ccccc4C3)c3ncnc(N)c23)c1 [compound 133, 3-[3-(aminomethyl)phenyl]-1-(2,3-dihydro-1H-inden-2-yl)-1H-pyrazolo[3,4-d]pyrimidin-4-amine] | 6.8 ± 14.52 (n = 3) % Inh | –
– | – | – | – | – | – | 1210 | – | 14.8 | Nc1ncnc2c1c(-c1ccc3[nH]cnc3c1)nn2C1CCc2ccccc2C1 (single isomer, unassigned) [Compound No. 19a, 3-(1H-benzo[d]imidazol-5-yl)-1-(1,2,3,4-tetrahydronaphthalen-2-yl)-1H-pyrazolo[3,4-d]pyrimidin-4-amine] | – | 24.62 ± 10.79 (n = 6) % Inh
– | 26.99 | – | 34.17 | – | 72.83 | 190 | 76.31 | 1 | Nc1ncnc2c1c(-c1ccc(Br)c(O)c1)nn2C1CCc2ccccc21 (single isomer, unassigned) [36a, 5-[4-amino-1-(2,3-dihydro-1H-inden-1-yl)-1H-pyrazolo[3,4-d]pyrimidin-3-yl]-2-bromophenol] | 1.63 ± 7.31 (n = 3) % Inh | –
6.57 | 18.99 | 8.3 | 19.42 | – | – | – | – | – | Nc1ncnc2c1c(-c1cc(F)c3c(c1)NC(=O)CO3)nn2C1Cc2ccccc2C1 [compound 129, 6-[4-amino-1-(2,3-dihydro-1H-inden-2-yl)-1H-pyrazolo[3,4-d]pyrimidin-3-yl]-8-fluoro-3,4-dihydro-2H-1,4-benzoxazin-3-one] | 12.5 ± 13.16 (n = 3) % Inh | –
– | 19.61 | – | 4.96 | – | 61.7 | 791 | 60.21 | 328 | COc1cc(-c2nn(C3Cc4ccccc4C3)c3ncnc(N)c23)ccc1C(F)(F)F [Compound No. 69, 1-(2,3-dihydro-1H-inden-2-yl)-3-[3-methoxy-4-(trifluoromethyl)phenyl]-1H-pyrazolo[3,4-d]pyrimidin-4-amine] | – | –
– | 5.47 | – | −13.69 | – | 6.5 | – | 13.55 | – | CCOc1cc(-c2nn(C3Cc4ccccc4C3)c3ncnc(N)c23)ccc1OC(F)(F)F [Compound No. 76, 1-(2,3-dihydro-1H-inden-2-yl)-3-[3-ethoxy-4-(trifluoromethoxy)phenyl]-1H-pyrazolo[3,4-d]pyrimidin-4-amine] | – | –
– | 12.61 | – | 48.6 | – | – | – | – | – | Nc1ncnc2c1c(-c1ccc(O)c(O)c1)nn2C1CCc2ccccc2C1 (centres unmarked) [compound 1, 4-(4-amino-1-tetralin-2-yl-pyrazolo[3,4-d]pyrimidin-3-yl)benzene-1,2-diol] | – | –
